Key:
[1] = cited from earlier work
[2] = Potentiometric titration of the ligand DPDP; assay type: physicochemical; settings: pH of 3 and above
Method: The compound DPDP was studied potentiometrically from pH 11.2 to 2.0. Data sets were collected on a custom-built automatic potentiometric titration apparatus composed of a METROHM 655 DOSIMAT automatic buret, a FISHER ACCUMET pH meter with a CORNING calomel combination electrode, a custom-blown water jacketed titration cell, a BRINKMAN LAUDA K-2/R constant temperature bath and a COMMODORE 64 computer. […] Data analysis was performed on an IBM-AT computer using the least squares program, BETA (Harris, W. et al, supra), and the data analysis program, HANDNBAR (Harris, W. et al, supra). The titrants were standardized by phenophthalein titration as follows: KOH was calibrated against potassium hydrogen phthalate (a primary standard), and HCl solutions were calibrated against the KOH standard. […] All solutions were made from distilled, deionized water that was further purified on a MILLI-Q cartridge system, degassed, and then kept under an atmosphere of argon which had been scrubbed for CO2 and O2. Additions of EDTA and Mn(II) solutions were performed using calibrated GILMOT pipets.

O=C(O)C(NCCNC(C(=O)O)c1ccccc1O)c1ccccc1O (centres unmarked) [EHPG, N,N'-ethylenebis-2-(o-hydroxyphenyl)glycine]
stability of the Fe(III) chelate ([1]; Anderegg et al): high stability
oxidation of manganese(II) in EHPG complexes ([1]; above pH 5, also under inert atmospheres, Frost et al): irreversibly oxidized

Cc1ncc(COP(=O)(O)O)c(CN(CCN(CC(=O)O)Cc2c(COP(=O)(O)O)cnc(C)c2O)CC(=O)O)c1O [DPDP, N,N'-bis-(pyridoxal-5-phosphate)ethylenediamine-N,N'-diacetic acid or N,N'-bis(3-hydroxy-2-methyl-5-phosphonomethyl-4-pyridylmethyl)ethylenediamine-N,N'-diacetic acid]
ionization state of the ligand [2]: anionic and possesses deprotonated metal binding sites

O=C(O)CN(CCN(CC(=O)O)Cc1ccccc1O)Cc1ccccc1O [HBED, N,N'-bis(2-hydroxybenzyl)ethylenediamine-N,N'-diacetic acid]
log Kf (formation constant) ([1]; manganese chelate, reported by L'Eplathenier et al): 14.8
oxidation of manganese(II) by the phenolic ligand during titration ([1]; titrations of L'Eplathenier et al, judged from Patch et al): oxidized by the phenolic ligand

Source: patent publication US4933456A, “Dipyridoxyl phosphate NMRI contrast agents” (Salutar, Inc., priority 1987, dated 1990)
